These results are taken from PMC4893642 (Theranostics, 2016).

“And” between values parts separate entries of the source, which are not always exact repeats. Equal values may be shown once.

In one data set the target is T1, MAGL (Rattus norvegicus, UniProt Q8R431).
T1 sequence (Q8R431 1-303): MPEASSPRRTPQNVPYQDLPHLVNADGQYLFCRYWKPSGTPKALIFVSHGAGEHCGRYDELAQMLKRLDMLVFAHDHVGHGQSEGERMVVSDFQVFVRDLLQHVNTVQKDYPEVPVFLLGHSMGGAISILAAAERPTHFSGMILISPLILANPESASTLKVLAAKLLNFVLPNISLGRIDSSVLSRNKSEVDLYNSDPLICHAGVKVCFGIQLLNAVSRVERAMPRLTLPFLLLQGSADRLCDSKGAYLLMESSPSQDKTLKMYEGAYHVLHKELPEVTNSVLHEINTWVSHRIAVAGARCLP
Particulars: 30 min i.v. before injection.

A short description of data set [1]: Ex vivo whole body biodistribution in mice.
The target in another data set is CB1 receptors (Homo sapiens, UniProt P21554). The data set can be described thus: CB1 agonist/antagonist test. The class given is cell-based. Particulars: at concentrations up to 30 µM.
A further data set has as its target CB2 receptors (Homo sapiens, UniProt P34972). Kind of data set: CB2 agonist/antagonist test. It is filed as cell-based. To be noted: at concentrations up to 30 µM.
The next data set concerns the target T2, human recombinant MAGL (Homo sapiens, UniProt Q99685).
T2 sequence (Q99685 1-303): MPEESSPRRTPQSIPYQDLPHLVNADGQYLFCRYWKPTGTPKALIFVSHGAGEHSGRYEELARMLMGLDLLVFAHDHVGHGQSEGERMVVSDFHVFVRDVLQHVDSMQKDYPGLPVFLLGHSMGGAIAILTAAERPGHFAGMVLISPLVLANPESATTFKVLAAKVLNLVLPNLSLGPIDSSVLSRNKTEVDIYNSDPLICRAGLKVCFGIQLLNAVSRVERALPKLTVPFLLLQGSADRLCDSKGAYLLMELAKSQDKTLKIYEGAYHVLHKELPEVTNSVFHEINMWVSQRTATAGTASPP
Kind of data set: In vitro MAGL inhibition enzyme assay. The class given is biochemical. Particulars: 4-nitrophenylacetate substrate.

A further data set has as its target T3, FAAH (Homo sapiens, UniProt O00519).
T3 sequence (O00519 1-579): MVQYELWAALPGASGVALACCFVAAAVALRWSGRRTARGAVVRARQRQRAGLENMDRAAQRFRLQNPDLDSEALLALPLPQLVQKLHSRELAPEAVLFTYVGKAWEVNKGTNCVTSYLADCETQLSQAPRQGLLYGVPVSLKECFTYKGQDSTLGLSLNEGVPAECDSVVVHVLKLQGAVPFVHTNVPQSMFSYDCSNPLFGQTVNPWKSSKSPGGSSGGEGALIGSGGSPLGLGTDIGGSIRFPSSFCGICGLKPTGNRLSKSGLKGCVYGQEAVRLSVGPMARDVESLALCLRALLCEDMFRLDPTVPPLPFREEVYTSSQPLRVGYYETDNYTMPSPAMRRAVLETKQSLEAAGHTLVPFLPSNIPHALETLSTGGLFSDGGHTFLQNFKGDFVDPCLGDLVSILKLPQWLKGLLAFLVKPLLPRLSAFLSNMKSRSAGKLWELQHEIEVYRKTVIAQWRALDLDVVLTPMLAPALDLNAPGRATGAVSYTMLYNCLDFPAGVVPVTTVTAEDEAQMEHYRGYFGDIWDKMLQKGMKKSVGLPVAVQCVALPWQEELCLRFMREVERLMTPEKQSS
The data set can be described thus: In vitro FAAH inhibition enzyme assay. The class given is biochemical. To be noted: read-out: inhibition of FAAH enzyme.

Sequence of CB1 receptors (P21554 whole entry): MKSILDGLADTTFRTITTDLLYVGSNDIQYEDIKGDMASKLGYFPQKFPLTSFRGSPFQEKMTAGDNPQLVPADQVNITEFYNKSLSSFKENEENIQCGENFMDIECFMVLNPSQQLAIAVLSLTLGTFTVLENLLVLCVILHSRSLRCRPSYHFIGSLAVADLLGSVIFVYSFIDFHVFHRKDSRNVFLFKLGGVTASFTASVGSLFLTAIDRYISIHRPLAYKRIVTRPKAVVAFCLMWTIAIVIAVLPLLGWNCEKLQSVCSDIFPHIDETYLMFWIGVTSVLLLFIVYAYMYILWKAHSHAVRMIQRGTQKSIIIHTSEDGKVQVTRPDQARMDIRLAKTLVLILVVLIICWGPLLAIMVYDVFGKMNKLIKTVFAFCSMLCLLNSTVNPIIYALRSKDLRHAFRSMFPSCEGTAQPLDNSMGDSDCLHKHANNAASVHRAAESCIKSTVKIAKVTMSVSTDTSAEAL
Sequence of CB2 receptors (P34972 whole entry): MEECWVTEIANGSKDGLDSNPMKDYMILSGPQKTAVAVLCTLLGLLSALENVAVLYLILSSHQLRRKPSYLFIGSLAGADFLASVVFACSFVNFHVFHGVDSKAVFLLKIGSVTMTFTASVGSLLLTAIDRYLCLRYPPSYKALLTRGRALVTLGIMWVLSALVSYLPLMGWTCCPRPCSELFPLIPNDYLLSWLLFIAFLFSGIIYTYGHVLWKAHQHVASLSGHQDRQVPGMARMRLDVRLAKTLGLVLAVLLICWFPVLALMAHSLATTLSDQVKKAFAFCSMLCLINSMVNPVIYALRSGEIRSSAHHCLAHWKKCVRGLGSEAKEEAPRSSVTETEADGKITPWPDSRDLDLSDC

On to `O=C(N1CCC(CNS(=O)(=O)c2ccc(Cl)cc2)CC1)n1cncn1` [Compound 5f, N-((1-(1H-1,2,4-triazole-1-carbonyl)piperidin-4-yl)methyl)-4-chlorobenzenesulfonamide], for which, on MAGL (rat, blocker 1 mg/kg), the “reduction of [11C]5f uptake in cerebellum by pretreatment” value was 53%, the “reduction of [11C]5f uptake in cerebral cortex by pretreatment” value was found to be 42% and the “reduction of [11C]5f whole brain uptake by pretreatment” value worked out at 48%. Further, the “uptake in the liver, kidneys and small intestine” value in data set [1] is “High uptake”. The “CB1 receptor agonism or antagonism” value on CB1 receptors was “No significant CB1 and CB2 receptors agonism or antagonism”. For the same molecule, the “CB2 receptor agonism or antagonism” value at CB2 receptors is “No significant CB1 and CB2 receptors agonism or antagonism”. Besides, the IC50 on human recombinant MAGL is 39.3 nM and 35.9 nM. On FAAH, the inhibition at 0.5 µM was 75%.

For `O=C(OC(C(F)(F)F)C(F)(F)F)N1CCC(CNS(=O)(=O)c2ccc(Cl)cc2)CC1` [Compound 5a, 1,1,1,3,3,3-hexafluoropropan-2-yl 4-(((4-chlorophenyl)sulfonamido)methyl)piperidine-1-carboxylate], the “uptake in the liver, kidneys and small intestine” value in data set [1] was “High uptake”. In addition, at CB1 receptors, the “CB1 receptor agonism or antagonism” value is “No significant CB1 and CB2 receptors agonism or antagonism”. The “CB2 receptor agonism or antagonism” value on CB2 receptors is “No significant CB1 and CB2 receptors agonism or antagonism”.

Take `NC(=O)c1cccc(-c2cccc(OC(=O)NC3CCCCC3)c2)c1` [URB597, reference compound]: the “effect on [11C]SAR127303 uptake and distribution in rat brain” value on MAGL (blocker 3 mg/kg) is “no effect on the uptake and distribution in rat brain”.

Broadly, the IC50 is the concentration that inhibits the measured activity by half. What is called inhibition is the change of the read-out against control, counted positive when it falls.
